Experimental data reported in publication PMC10671074, “Tumor Regression upon Intratumoral and Subcutaneous Dosing of the STING Agonist ALG-031048 in Mouse Efficacy Models” (International Journal of Molecular Sciences, 2023).

Tests used:
[1] = target: T1, STING R232 (Homo sapiens, UniProt Q86WV6, H232R); assay: HEK 293 STING R232 IFN-β reporter assay; assay type: cell-based; set-up: host or cells: 293T-Dual hSTING-R232 (HEK 293T derived); settings: HEK 293 STING R232 cells, digitonin dosing buffer 30 min, 20 h; mean±standard deviation; read-out: Reporter Cell Assay EC50, STING R232 IFN-β
Protocol: (§1) Assays were set up after allowing cells to adhere for 48 h. Compounds dissolved in water were serially diluted in dosing buffer containing 10 µg/mL of digitonin (MP Biomedicals, Solon, OH, USA). Media were aspirated from the cells, and 50 µL of buffer with compound was added in triplicate. […] An aliquot of 100 µL of CellTiter-Glo® (Promega, Madison, WI, USA) was added to the original plate still containing the cells, and luminescence was determined to measure viability. All readouts were measured on an Envision plate reader from Perkin Elmer. Data were analyzed using GraphPad™ Prism’s version 8.0 [Agonist] vs. response—variable slope (four parameters) model.

[2] = tested on: phosphodiesterase I from Crotalus adamanteus venom (SVPD)
[3] = tested on: primary human immature dendritic cells; assay: Cytokine release from immature dendritic cells; assay type: cell-based
Protocol: The iMDDCs harvested on Day 5 (25,000 cells/well) after differentiation from normal human CD14+ CD16− monocytes were stimulated with STING agonists for 24–48 h. An aliquot of iMDDCs was also cultured in maturation media for 24–48 h and used as a control containing RPMI 1640, 10% FBS, 2 mM L-glutamine, and human TNF-α (6000 IU/mL, Miltenyi Biotec). The supernatant from the plate was frozen to assess cytokine production, and cells were analyzed via flow cytometry.
CD11c+ monocyte‐derived dendritic cells. E: Live cells were selected based on live/dead staining
and cell size. F: Dot plot of size SSC‐A versus SSC‐H for doublet exclusion, gating on singlet cells.
G: Dot plot of CD209 vs CD11c to select CD209+CD11+ high monocyte‐derived dendritic cells.
Figure S4. Increased release of cytokines from iDCs after stimulation for 24 hours with 50 μ M of the […]

[4] = target: T1, STING R232; assay: HEK 293 STING R232 IRF reporter assay; assay type: cell-based; set-up: host or cells: 293T-Dual hSTING-R232 (HEK 293T derived); settings: HEK 293 STING R232 cells, digitonin dosing buffer 30 min, 20 h; mean±standard deviation; read-out: Reporter Cell Assay EC50, STING R232 IRF
Protocol: as §1

[5] = tested on: EMT-6 murine mammary carcinoma; assay: Re-challenge with EMT-6 of mice with complete CT26 tumor regression; assay type: in vivo, mouse; settings: Figure 5D; previously 100 μg IT × 3; EMT-6 right flank
Protocol: Ten naïve, age-matched female BALB/c mice were used as controls. […] Tumor growth was measured as described above.

[6] = Liver microsomal stability, mouse; assay type: in vitro ADME; settings: pH 7.4, 0.5 mg/mL mouse liver microsomes, 37 °C, read-out: Liver Microsome t½, Mouse
Protocol: The liver microsomal stability assay was carried out in 96-well microtiter plates. The test compounds at 5 µM and the reference compound (verapamil) at 1 µM final concentration were incubated separately at 37 °C with 0.5 mg/mL liver microsomes, with or without 1 mM NADPH in 100 mM potassium phosphate buffer, pH 7.4 with 3.3 mM MgCl2. […] At each of the time points (0, 15, 30, and 60 min), the enzymatic reaction was terminated with the addition of 150 μL of quenching solution (100% acetonitrile, 0.1% formic acid, and the internal standard), and subsequently the mixtures were vortexed vigorously for 20 min and centrifuged at 4000 rpm at 10 °C. The supernatants (80 µL) were transferred to a clean 96-well plate and analyzed via LC/MS/MS. The peak area ratios of each test compound over the internal standard were plotted against incubation time, and the t½ was calculated from the curve assuming first-order kinetics.

T1 sequence (Q86WV6 whole entry H232R): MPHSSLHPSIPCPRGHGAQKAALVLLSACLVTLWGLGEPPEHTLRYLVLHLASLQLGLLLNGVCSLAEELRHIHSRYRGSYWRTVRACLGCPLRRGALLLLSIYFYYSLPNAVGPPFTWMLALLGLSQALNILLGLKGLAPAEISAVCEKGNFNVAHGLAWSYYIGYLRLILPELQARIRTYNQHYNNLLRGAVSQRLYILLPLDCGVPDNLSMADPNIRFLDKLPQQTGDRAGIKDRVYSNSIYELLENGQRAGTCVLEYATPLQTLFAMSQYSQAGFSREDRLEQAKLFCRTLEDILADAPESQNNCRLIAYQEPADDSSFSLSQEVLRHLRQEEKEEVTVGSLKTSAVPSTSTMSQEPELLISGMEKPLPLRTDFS

CO[C@H]1[C@H]2OP(=O)(O)OC[C@@]34C[C@@H]3[C@@H](n3cnc5c(N)ncnc53)[C@H](O)[C@@H]4O[P@](=O)(S)OC[C@H]1O[C@H]2n1cnc2c(=O)[nH]c(N)nc21 [ALG-031048]
EC50 [1]: 132 nM | Stability after incubation with SVPD (in words) [2]: stable | IFN-γ and IL-6 release from iDCs ([3]; 24 h time point): either no increase or only a minimal increase | Cytokine release from iDCs ([3]; treatment for 24 h, 50 μM (Figure S4)): release of key cytokines IFN-β, IP-10, MIP-1α, MCP-1, and TNF-α | EC50 [4]: 29 nM | EMT-6 tumor growth after re-challenge [5]: formed in these animals with kinetics comparable to those of naïve animals | half-life at 5 µM [6]: > 8 h
